What all share (format): cell-based
The test system of experiment [1] is Plasmodium falciparum. Put plainly: 3H-hypoxanthine incorporation assay against Plasmodium falciparum. The note with it: In vitro inhibition, read-out: P.falc NF5. On the procedure:
(§1) Tests were done in triplicate.
IC50 values were calculated by linear interpolation.

Experiment [2] deals with Axenically grown Leishmania donovani amastigotes (strain MHOM/ET/67/L82). Put plainly: Axenic Leishmania donovani amastigote resazurin assay. The note with it: In vitro inhibition, read-out: L.don. ax. Summed up: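 IC50 values derive from resazurin fluorescence (ex 536 nm, em 588 nm), expressed relative to the negative control, after 2-4 hours of plate development. Axenic amastigotes of strain MHOM/ET/67/L82 were used; each test run in triplicate.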

Experiment [3] concerns intracellular Leishmania donovani (L.don. InMac). Description: Intracellular Leishmania donovani assay (L.don. InMac). The following applies: In vitro inhibition.
Text: as §1

The subject of experiment [4] is Trypanosoma brucei rhodesiense (STIB 900 strain). Put plainly: Alamar Blue assay against Trypanosoma brucei rhodesiense grown in axenic medium. The following applies: In vitro inhibition, read-out: T.b.rhod. Summed up: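 Alamar Blue-based IC50 determination, in triplicate, on axenically grown STIB 900 trypanosomes. Melarsoprol included as reference.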
The subject of experiment [5] is Trypanosoma cruzi trypomastigote forms (Tulahuen strain). Put plainly: Intracellular Trypanosoma cruzi assay in L6-cells, beta-galactosidase/CPRG readout. The note with it: In vitro inhibition, read-out: T.cruzi. Summed up: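 Readout was β-galactosidase cleavage of CPRG, read photometrically at 540 nm after 2–6 h colour development, giving IC50 values. Parasites: LacZ-expressing Tulahuen C2C4 strain grown in rat L6 myoblasts; run in triplicate.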

The structures appear in SMILES notation. Non-standard residues stand in square brackets, D forms with d. Residues, ends and D or L forms follow the SMILES beside them. *: point of attachment. NH((S)CH(Me)CH2NMe2) = C[C@@H](CN(C)C)N*; Benzoyl(4-OMe) = COc1ccc(C(=O)*)cc1; Gly(octyl) = CCCCCCCC[C@H](N)C(=O)O; Thiophene2carbonyl = O=C(c1cccs1)*; X16 = COc1ccc2cc(C(=O)*)c(=O)oc2c1; Benzoyl(4-F) = O=C(c1ccc(F)cc1)*; hCha = N[C@@H](CCC1CCCCC1)C(=O)O; Pyrrole2CO = O=C(c1ccc[nH]1)*; X17 = C[C@@H](CN1CCOCC1)N*; X4 = O=C(C1CCc2ccccc2C1)*; Aib = CC(C)(N)C(=O)O; βAla = NCCC(=O)O

For `CCCCCCCC[C@H](NC(=O)[C@@H]1CCCN1C(=O)c1cc2ccc(OC)cc2oc1=O)C(=O)N[C@@H](CC(C)C)C(=O)NC(C)(C)C(=O)N[C@@H](CC(C)C)C(=O)N[C@@H](CC(C)C)C(=O)NC(C)(C)C(=O)NC(C)(C)C(=O)NCCC(=O)N[C@@H](C)CN(C)C` [Compound 5769, (2S)-N-[(1S)-1-[(1-{[(1S)-1-{[(1S)-1-{[1-({1-[(2-{[(2S)-1-(dimethylamino)propan-2-yl]carbamoyl}ethyl)carbamoyl]-1-methylethyl}carbamoyl)-1-methylethyl]carbamoyl}-3-methylbutyl]carbamoyl}-3-methylbutyl]carbamoyl}-1-methylethyl)carbamoyl]-3-methylbutyl]-2-{[(2S)-1-(7-methoxy-2-oxo-2H-chromene-3-carbonyl)pyrrolidin-2-yl]formamido}decanamide] (X16-P[Gly(octyl)]L[Aib]LL[Aib][Aib][βAla]-{NH((S)CH(Me)CH2NMe2)}), the IC50 in experiment [1] was determined as 0.0053 µM; in experiment [2], 0.0081 µM; in experiment [3], 0.216 µM; in experiment [4], 0.0028 µM; in experiment [5], 0.167 µM.
Taken in the same sequence, the figures for `CCCCCCCC[C@H](NC(=O)[C@@H]1CCCN1C(=O)c1ccc[nH]1)C(=O)N[C@@H](CC(C)C)C(=O)NC(C)(C)C(=O)N[C@@H](CC(C)C)C(=O)N[C@@H](CC(C)C)C(=O)NC(C)(C)C(=O)NC(C)(C)C(=O)NCCC(=O)N[C@@H](C)CN(C)C` [Compound 5939, (2S)-N-[(1S)-1-[(1-{[(1S)-1-{[(1S)-1-{[1-({1-[(2-{[(2S)-1-(dimethylamino)propan-2-yl]carbamoyl}ethyl)carbamoyl]-1-methylethyl}carbamoyl)-1-methylethyl]carbamoyl}-3-methylbutyl]carbamoyl}-3-methylbutyl]carbamoyl}-1-methylethyl)carbamoyl]-3-methylbutyl]-2-{[(2S)-1-(1H-pyrrole-2-carbonyl)pyrrolidm-2-yl]formamido}decanamide] (Pyrrole2CO-P[Gly(octyl)]L[Aib]LL[Aib][Aib][βAla]-{NH((S)CH(Me)CH2NMe2)}) were 36.2 µM, 36 µM, 0.209 µM, 0.0001 µM and 42.5 µM.
Consider `CCCCCCCC[C@H](NC(=O)[C@@H]1CCCN1C(=O)C1CCc2ccccc2C1)C(=O)N[C@@H](CC(C)C)C(=O)NC(C)(C)C(=O)N[C@@H](CC(C)C)C(=O)N[C@@H](CC(C)C)C(=O)NC(C)(C)C(=O)NC(C)(C)C(=O)NCCC(=O)N[C@@H](C)CN(C)C` (stereo partly drawn) [Compound 5910, (2S)-N-[(1S)-1-[(1-{[(1S)-1-{[(1S)-1-{[1-({1-[(2-{[(2S)-1-(dimethylamino)propan-2-yl]carbamoyl}ethyl)carbamoyl]-1-methylethyl}carbamoyl)-1-methylethyl]carbamoyl}-3-methylbutyl]carbamoyl}-3-methylbutyl]carbamoyl}-1-methylethyl)carbamoyl]-3-methylbutyl]-2-{[(2S)-1-(1,2,3,4-tetrahydronaphthalene-2-carbonyl)pyrrolidin-2-yl]formamido}decanamide] (X4-P[Gly(octyl)]L[Aib]LL[Aib][Aib][βAla]-{NH((S)CH(Me)CH2NMe2)}), for which the IC50 in experiment [1] amounted to 42.6 µM; in experiment [2], 42.6 µM; in experiment [3] it was 42.6 µM; in experiment [4] it was 24.8 µM; in experiment [5], 0.0411 µM.
As for `CCCCCCCC[C@H](NC(=O)[C@@H]1CCCN1C(=O)c1ccc(OC)cc1)C(=O)N[C@@H](CC(C)C)C(=O)NC(C)(C)C(=O)N[C@@H](CC(C)C)C(=O)N[C@@H](CC(C)C)C(=O)NC(C)(C)C(=O)NC(C)(C)C(=O)NCCC(=O)N[C@@H](C)CN(C)C` [Compound 5912, (2S)-N-[(1S)-1-[(1-{[(1S)-1-{[(1S)-1-{[1-({1-[(2-{[(2S)-1-(dimethylamino)propan-2-yl]carbamoyl}ethyl)carbamoyl]-1-methylethyl}carbamoyl)-1-methylethyl]carbamoyl}-3-methylbutyl]carbamoyl}-3-methylbutyl]carbamoyl}-1-methylethyl)carbamoyl]-3-methylbutyl]-2-{[(2S)-1-(4-methoxybenzoyl)pyrrolidin-2-yl]formamido}decanamide] ({Benzoyl(4-OMe)}-P[Gly(octyl)]L[Aib]LL[Aib][Aib][βAla]-{NH((S)CH(Me)CH2NMe2)}), the IC50 was found to be 20.9 µM in experiment [1]; 41.4 µM in experiment [2]; 42.6 µM in experiment [3]; 0.0003 µM in experiment [4]; 17.8 µM in experiment [5].
Taken in the same sequence, the figures for `CCCCCCCC[C@H](NC(=O)[C@@H]1CCCN1C(=O)c1cccs1)C(=O)N[C@@H](CC(C)C)C(=O)NC(C)(C)C(=O)N[C@@H](CC(C)C)C(=O)N[C@@H](CC(C)C)C(=O)NC(C)(C)C(=O)NC(C)(C)C(=O)NCCC(=O)N[C@@H](C)CN(C)C` [Compound 5904, (2S)-N-[(1S)-1-[(1-{[(1S)-1-{[(1S)-1-{[1-({1-[(2-{[(2S)-1-(dimethylamino)propan-2-yl]carbamoyl}ethyl)carbamoyl]-1-methylethyl}carbamoyl)-1-methylethyl]carbamoyl}-3-methylbutyl]carbamoyl}-3-methylbutyl]carbamoyl}-1-methylethyl)carbamoyl]-3-methylbutyl]-2-{[(2S)-1-(thiophene-2-carbonyl)pyrrolidin-2-yl]formamido}decanamide] (Thiophene2carbonyl-P[Gly(octyl)]L[Aib]LL[Aib][Aib][βAla]-{NH((S)CH(Me)CH2NMe2)}) were 32.1 µM, 42.5 µM, 42.5 µM, 0.0002 µM and 36.3 µM.
In the case of `CC(C)C[C@H](NC(=O)[C@H](CCC1CCCCC1)NC(=O)[C@@H]1CCCN1C(=O)c1ccc(F)cc1)C(=O)NC(C)(C)C(=O)N[C@@H](CC(C)C)C(=O)N[C@@H](CC(C)C)C(=O)NC(C)(C)C(=O)NC(C)(C)C(=O)NCCC(=O)N[C@@H](C)CN1CCOCC1` [Compound 6028, (2S)-2-[(2S)-2-{2-[(2S)-2-[(2S)-4-cyclohexyl-2-{[(2S)-1-(4-fluorobenzoyl)pyrrolidin-2-yl]formamido}butanamido]-4-methylpentanamido]-2-methylpropanamido}-4-methylpentanamido]-4-methyl-N-[1-methyl-1-({1-methyl-1-[(2-{[(2S)-1-(morpholin-4-yl)propan-2-yl]carbamoyl}ethyl)carbamoyl]ethyl}carbamoyl)ethyl]pentanamide] ({Benzoyl(4-F)}-P[hCha]L[Aib]LL[Aib][Aib][βAla]-X17), the IC50 amounted to 0.0263 µM in experiment [1]; 12.5 µM in experiment [2]; 0.418 µM in experiment [3]; 41.9 µM in experiment [4]; 0.23 µM in experiment [5].

Values taken from EP3345917A1, “ANTIPROTOZOAL COMPOUNDS” (Bacoba AG, priority 2017, dated 2018).
